According to PubChem BioAssay (NCI):
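Results reflect a 48-hour exposure of cells in 96-well plates to compound at five concentrations. Definition used: TGI = concentration required for complete inhibition of growth.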

Columns and labels:
Assay in all cases: inhibition of tumour cell growth, NCI panel, 48 h
ACHN renal = tested on: ACHN renal
HL-60(TB) leukemia = tested on: HL-60(TB) leukemia
HOP-62 NSCLC = tested on: HOP-62 NSCLC
HOP-92 NSCLC = tested on: HOP-92 NSCLC
HT29 colon = tested on: HT29 colon
IGROV1 ovarian = tested on: IGROV1 ovarian
K-562 leukemia = tested on: K-562 leukemia
LOX IMVI melanoma = tested on: LOX IMVI melanoma
MCF7 breast = tested on: MCF7 breast
MDA-N = tested on: MDA-N
NCI-H226 lung = tested on: NCI-H226 lung
NCI-H460 lung = tested on: NCI-H460 lung
NCI-H522 lung = tested on: NCI-H522 lung
OVCAR-4 ovarian = tested on: OVCAR-4 ovarian
RPMI-8226 leukemia = tested on: RPMI-8226 leukemia
RXF 393 renal = tested on: RXF 393 renal
SF-295 CNS = tested on: SF-295 CNS
SNB-19 CNS = tested on: SNB-19 CNS
SNB-75 CNS = tested on: SNB-75 CNS
HOP-18 NSCLC = tested on: HOP-18 NSCLC

Row | Compound | TGI (ACHN renal) [µM] | TGI (HL-60(TB) leukemia) [µM] | TGI (HOP-62 NSCLC) [µM] | TGI (HOP-92 NSCLC) [µM] | TGI (HT29 colon) [µM] | TGI (IGROV1 ovarian) [µM] | TGI (K-562 leukemia) [µM] | TGI (LOX IMVI melanoma) [µM] | TGI (MCF7 breast) [µM] | TGI (MDA-N) [µM] | TGI (NCI-H226 lung) [µM] | TGI (NCI-H460 lung) [µM] | TGI (NCI-H522 lung) [µM] | TGI (OVCAR-4 ovarian) [µM] | TGI (RPMI-8226 leukemia) [µM] | TGI (RXF 393 renal) [µM] | TGI (SF-295 CNS) [µM] | TGI (SNB-19 CNS) [µM] | TGI (SNB-75 CNS) [µM] | TGI (HOP-18 NSCLC) [µM]
1 | O=C1C(Cl)=C(Nc2ccc(S(=O)(=O)Nc3ccccn3)cc2)C(=O)c2ccccc21 | 31.2 | > 50.5 | 29.9 | 15.4 | 22.3 | 23.1 | 16.5 | 4.59 | 12.9 | 13.9 | 42.1 | 19.2 | 13.7 | > 53.6 | 15.4 | 22.6 | 35.2 | 38.7 | 21.9 | –
2 | CC(=O)C1CC[C@@H]2[C@H](CC[C@]3(C)[C@@H](O)CC[C@@H]23)[C@H]1C(=O)O (stereo partly drawn) | – | > 100 | > 100 | > 100 | > 100 | > 100 | > 100 | – | > 100 | – | – | > 100 | > 100 | > 100 | > 100 | > 100 | > 100 | > 100 | – | –
3 | COc1cc(C(O)(CC#N)c2cc3c(cc2Br)OCO3)cc(OC)c1OC (stereo not drawn) | > 100 | – | 35.9 | > 100 | 54.9 | > 100 | > 100 | > 100 | > 100 | > 100 | 83.3 | 50.8 | – | > 100 | > 100 | > 100 | > 100 | 76.1 | > 100 | –
4 | N/C(=N\N=C\c1ccc2c(c1)OCCO2)NO | – | > 63.2 | 93.2 | 80.6 | 33.6 | > 100 | > 72.4 | > 72.7 | > 82.4 | – | 27.5 | > 100 | 42.1 | > 100 | > 64.4 | > 100 | 57.1 | > 32.6 | > 100 | > 100
5 | O=C1c2ccccc2C(=O)N1CC(O)COc1cccc2ccccc12 (stereo not drawn) | > 100 | > 100 | > 100 | – | > 100 | > 100 | > 100 | > 100 | > 100 | > 100 | – | > 100 | > 100 | – | > 100 | – | > 100 | > 100 | – | –
6 | NC(=S)N/N=C\c1nccc2ccccc12 | 0.317 | 40.4 | – | 4.56 | 30.9 | 17.4 | > 50 | 11.8 | 11.9 | > 100 | 0.54 | 25.5 | 32.5 | 1.2 | 4.72 | – | 0.781 | > 100 | – | –
